Reference: PMC9525908, “α-Crystallin chaperone mimetic drugs inhibit lens γ-crystallin aggregation: Potential role for cataract prevention” (The Journal of Biological Chemistry, 2022)
Changes are numbered by the printed parent chain. Read-outs that look alike come from different tables or passages of the source.

Key:
R14C mutant of HγD = molecular target: T1, R14C mutant of HγD (Homo sapiens, UniProt P07320, R15C); assay: End-point turbidity assay (72 °C, 20 min) of R14C mutant; type: biochemical; settings: 500 μM drug, 5 mM DTT, read-out: Inhibition of aggregation (%) R14C
T1 construct: made in house; host or cells: E. coli BL21(DE3) pLysS
T1 sequence (P07320 1-174 R15C): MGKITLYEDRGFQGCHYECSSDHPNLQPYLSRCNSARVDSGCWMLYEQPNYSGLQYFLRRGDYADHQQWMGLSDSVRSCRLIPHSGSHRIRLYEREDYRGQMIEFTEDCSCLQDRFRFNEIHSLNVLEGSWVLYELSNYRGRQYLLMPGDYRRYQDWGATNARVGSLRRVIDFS
Procedure: (§1) Aggregation kinetics assays at 600 nm in the presence of varying concentrations (0, 100, 200, 300, 400, and 500 μM) of our selected drugs were also performed on mutants of HγD (W43R, W42Q, R14C, and R58H) and MγS (F9S) at a concentration of 1 mg/ml in 50 mM K3PO4 buffer (pH 7.2) in a total volume of 100 μl. WT-HγD and WT-MγS crystallin served as controls for their respective mutant versions. For W43R mutant, aggregation assay was done at 42 °C for a total of 200 min. Absorbance was monitored every 10 min. For R14C and R58H mutants, end-point turbidity assay was done at 72 °C for 20 min. […] All the experiments were run in duplicates or triplicates.

WT-HγD = molecular target: T2, WT-HγD (Homo sapiens, UniProt P07320); assay: bis-ANS binding study, WT-HγD; settings: 10 μM protein, 100 μM drug; read-out: Percent inhibition of binding of bis-ANS, WT-HγD
T2 construct: made in house; host or cells: E. coli BL21(DE3) pLysS, pET3d vector
T2 sequence (P07320 1-174): T1 sequence (P07320 1-174 R15C) with C15R
Procedure: Extrinsic fluorescence spectra were recorded using bis-ANS, a well-known surface hydrophobicity probe. The spectra were recorded between 400 and 600 nm after exciting at 390 nm. The experiment was performed on 10 μM of HγD and MγS in 50 mM K3PO4 buffer with and without our candidate drugs (100 μM). Bis-ANS stock solution was prepared in methanol whose final percentage was maintained below 7 after mixing with proteins ([81]).

R58H mutant of HγD = molecular target: T3, R58H mutant of HγD (Homo sapiens, UniProt P07320, R59H); assay: End-point turbidity assay (72 °C, 20 min) of R58H mutant; type: biochemical; settings: 500 μM drug, read-out: Inhibition of aggregation (%) R58H
T3 construct: made in house; host or cells: E. coli BL21(DE3) pLysS
T3 sequence (P07320 1-174 R59H): T1 sequence (P07320 1-174 R15C) with C15R, R59H
Procedure: as §1

WT-MγS = molecular target: T4, WT-MγS (Mus musculus, UniProt O35486); assay: End-point heat-mediated turbidity assay, WT-MγS; type: biochemical; settings: for Effect on MγS absorbance: 400 μM drug, 72 °C, protein above 0.5 mg/ml; for inhibition at 500 µM: read-out: Percent Inhibition of heat mediated aggregation, WT-MGS
T4 construct: made in house; host or cells: E. coli BL21(DE3) pLysS, pET17b vector
T4 sequence (O35486 1-178): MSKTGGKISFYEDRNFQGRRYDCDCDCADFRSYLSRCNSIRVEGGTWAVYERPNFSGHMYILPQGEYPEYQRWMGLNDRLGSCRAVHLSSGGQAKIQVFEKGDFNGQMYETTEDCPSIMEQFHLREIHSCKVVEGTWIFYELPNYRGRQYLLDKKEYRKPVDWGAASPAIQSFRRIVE
Procedure: For end-point assays, HγD and MγS (1 mg/ml, 100 μl) in 50 mM K3PO4 buffer (pH 7.2) in set of triplicates in transparent flat bottom 96-well plates were heated at 72 °C for 20 min in the presence and absence of selected drugs at varying concentrations. Absorbance was measured at 600 nm with a SpectraMax iD5 (Molecular Devices). […]
Final DMSO concentration was 5% including in control samples. Microtiter plates were first incubated for 10 min at 72 °C and reincubated for 10 more min. Absorbance was measured at both 10 and 20 min total incubation time.

bovine gamma crystallins = assay: Screen: H2O2 and heat mediated aggregation of bovine gamma crystallins, turbidimetry at 600 nm; type: biochemical; settings: bovine γ-crystallin-rich proteins, oxidant stress 24 h and/or thermal stress 72 °C 20 min
Procedure: For the initial screen, a microtiter plate assay was developed in which bovine crystallins (2 mg/ml of 50 mM K3PO4 buffer, pH 7.2 [buffer A]) were exposed to H2O2 at varying concentrations (1–50 mM) for 12 to 36 h, upon which turbidity developed (at 50 mM H2O2 concentration) in both β- and γ-crystallins (Fig. 1, A and B). […] This was determined by turbidimetry at 600 nm (Fig. 1C) and confirmed using visual assessment of solution transparency over a fine text as well as the presence of cloudy aggregates visible by dark field microscopy (Fig. 1D). The drug:protein stoichiometric ratio was about 5:1. The wavelength of 600 nm was chosen to minimize interference by colored compounds, many of which absorb below 500 nm (Fig. 1E).
Wells were filled with 90 μl calf γ-crystallin-rich protein solution (pool 4 at 2 mg/ml) followed by 0.5 to 5.0 μl of drug (all 10 mM stock solution in DMSO) as supplied by the manufacturer and 10 μl H2O2 (450 mM stock solution in water) and sealed with sticky Applied Biosystems MicroAmp Clear Adhesive films (Life Technologies). Control wells received DMSO only. […] In order to quantitate the impact of the drugs on aggregation, a fitness plot was created (Fig. 1 C) that allowed us to identify wells with enhanced/worsening versus suppressed crystallin aggregation. In addition, aggregation in each well was also visually assessed by two independent “blinded” readers for the ability to read fine print through each well by placing the plates over small font text (Fig. 1D). Both machine and visual readouts were reconciled in order to increase robustness.

WT-HγD crystallin = molecular target: T5, WT-HγD crystallin (Homo sapiens, UniProt P07320); assay: Dynamic light scattering of thermally stressed WT-HγD; type: biochemical; settings: for Size (radius) of aggregates: 50 μM WT-HγD, 400 μM drug, 72 °C 20 min, 7261 nm without drugs
T5 construct: made in house; host or cells: E. coli BL21(DE3) pLysS, pET3d vector
T5 sequence (P07320 1-174): T1 sequence (P07320 1-174 R15C) with C15R
Procedure: Efficacy of our selected drugs in preventing the formation of protein aggregates was measured by DLS. Measurements were performed on a Wyatt DynaPro Nanostar. For DLS temperature scan experiment, pure and filtered protein samples (1 mg/ml in 10 mM sodium phosphate buffer, pH 7.2) with and without drugs (400 μM) were analyzed by DLS over a temperature range of 30 to 90 °C. Multiple scans were run for every data point, and the results represent average of individual scans. DLS spectra were also recorded for the samples at the end point of turbidity assay.

[1] = WT-HγD, end point of thermal stress 72 °C 20 min
[2] = 500 μM drug, end point of turbidity assay 72 °C 20 min

Row | SMILES | inhibition at 500 µM (R14C mutant of HγD) | inhibition at 100 µM (WT-HγD) | inhibition at 500 µM (R58H mutant of HγD) | Effect on MγS absorbance (WT-MγS) | inhibition at 500 µM (WT-MγS) | Antiaggregation activity (bovine gamma crystallins) | Size (radius) of aggregates (WT-HγD crystallin) | Percent Mass Peak 1 (WT-HγD crystallin; [1]) | Radius (nm) Peak 1 (WT-HγD crystallin; [1]) | inhibition at 500 µM (WT-MγS; [2]) | Percent Mass Peak 2 (WT-HγD crystallin; [1]) | Radius (nm) Peak 2 (WT-HγD crystallin; [1])
1 | CC(C)=CCC[C@]1(C)C=Cc2c(O)c3c(c(CC=C(C)C)c2O1)O[C@]12C(=C[C@@H]4C[C@H]1C(C)(C)O[C@@]2(C/C=C(/C)C(=O)O)C4=O)C3=O [drug G, Gambogic acid] | 55% | 44.64 ± 0.0011% | 83% | blocked absorbance | 80.5 ± 2.45% | Strong heat shock inhibitor | 84.9 nm | 100% | 84.9 nm |  |  | 
2 | O=C(O)CCCCCCCCCCCC[C@@H]1C=CCC1 [drug M, Chaulmoogric acid] | 18% | 4.28 ± 0.0003% | 44% |  |  | Dual heat shock inhibitor + antioxidant | 569 nm | 12.7% | 10.9 nm | 46.3 ± 4.23% | 87.3% | 568.5 nm
3 | COC(=O)/C=C/C(C)=C\C=C\C(C)=C\C=C\C=C(C)\C=C\C=C(C)\C=C\C(=O)O [drug B, Bixin] |  | 27.86 ± 0.0009% |  |  |  | Medium heat shock inhibitor |  |  |  | 55.5 ± 8.03% |  | 
4 | CC(C)=CCCC1(C)C=Cc2c(O)c3c(c(CC=C(C)C)c2O1)OC12C(=CC4CC1C(C)(C)OC2(C/C=C(/C)C(=O)O)C4O)C3=O (stereo not drawn) [drug D, dihydrogambogic acid] |  | 34.5 ± 0.0006% |  |  | 80.4 ± 0.44% | Strong heat shock inhibitor |  |  |  |  |  | 
5 | Oc1c(Cl)cc(Cl)c(Cl)c1Cc1c(O)c(Cl)cc(Cl)c1Cl [drug X, Hexachlorophene] |  | 15.16 ± 0.001% |  |  | 39.7 ± 3.42% |  |  |  |  |  |  | 
6 | Cc1cc(C(C#N)c2ccc(Cl)cc2)c(Cl)cc1NC(=O)c1cc(I)cc(I)c1O (stereo not drawn) [drug C, Closantel] | 68% | 43.82 ± 0.0012% | 55% | blocked absorbance | 80.5 ± 1.87% | Medium strong dual inhibitor | 30.5 nm | 100% | 30.5 nm |  |  | 
